Laboratory results taken from article PMC8151276, “An Integrated Approach toward NanoBRET Tracers for Analysis of GPCR Ligand Engagement” (Molecules, 2021).

Molecular target: T1, RXFP3 (Homo sapiens, UniProt Q9NSD7)
T1 construct: purchased Promega (in-house HiBiT-GPCR construct library, NanoBRET)
T1 sequence (Q9NSD7 1-469): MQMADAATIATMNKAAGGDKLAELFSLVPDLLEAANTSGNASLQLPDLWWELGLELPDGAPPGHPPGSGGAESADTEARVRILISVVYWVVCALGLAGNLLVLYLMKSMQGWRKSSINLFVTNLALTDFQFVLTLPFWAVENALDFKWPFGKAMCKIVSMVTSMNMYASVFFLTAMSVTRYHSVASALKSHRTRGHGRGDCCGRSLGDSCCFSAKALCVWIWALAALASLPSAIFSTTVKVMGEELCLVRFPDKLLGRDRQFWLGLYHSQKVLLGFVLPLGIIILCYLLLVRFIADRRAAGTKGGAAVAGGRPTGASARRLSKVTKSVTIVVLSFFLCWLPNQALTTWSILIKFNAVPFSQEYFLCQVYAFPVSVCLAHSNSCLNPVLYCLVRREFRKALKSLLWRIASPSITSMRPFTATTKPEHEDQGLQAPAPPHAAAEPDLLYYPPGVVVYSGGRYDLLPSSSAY
Test: NanoBRET screen HiBiT-RXFP3 in HEK293
Format: binding
Method: Each tracer candidate was screened across the entire library of HiBiT-GPCR constructs using NanoBRET as the detection modality. As depicted in Figure 4A, the specificity of interactions was evaluated through decrease in BRET due to competitive displacement of a bound tracer by excess parental compound. Each tracer was analyzed for binding to each HiBiT-GPCR fusion in the absence and in the presence of competing parental compound. Briefly, HEK293 cells were transfected with HiBiT-GPCR constructs diluted into promoterless DNA to reduce expression and maximize translocation to the cell surface. Each tracer candidate was then screened at concentrations of 1 μM and 0.1 μM across cells expressing these fusions. Cells were treated for 1.5 h with tracer either alone or in the presence of 20 μM competing parental compound (i.e., control). BRET was measured upon addition of purified LgBiT and subsequent complementation with HiBiT genetically fused to a GPCR. The specificity of interactions was assessed through a decrease in BRET signal due to competitive displacement of the bound tracer. To further gauge the robustness of these interactions, the fold response over the control (i.e., BRETtracer/BRETcontrol) was calculated. We chose a 1.5-fold response, which translates to ≥7-fold signal over noise as the minimal threshold required to score an interaction as positive. […]. Below we highlight the screening results obtained for our exemplary fluorescent tracers based on Clozapine, Amitriptyline and AZD1283.
HiBiT-GPCR DNA constructs were diluted in 10 mM Tris pH 8 to a final concentration of 0.01 μg/μL, arrayed in 96-well plates and stored at −20 °C. For transfection, HEK293 cells were suspended in Opti-MEM (without phenol red) supplemented with 2% fetal bovine serum (Seradigm) and 100 units/mL penicillin–streptomycin (Gibco) at a final concentration of 220,000 cells/mL and dispensed into white 96-well plates at 90 μL/well. Subsequent transfections and screens were carried using an Agilent Bravo Automated Liquid Handling Platform. First, the 96-well HiBiT DNA arrays were diluted 25-fold in Opti-MEM (without serum or phenol red) to a final concentration of 0.0004 μg/μL and 20 μL of the diluted DNAs were transferred into new 96-well plates. Next, promoterless carrier DNA (1 μg/μL) was diluted 25-fold (0.04 μg/μL) and then dispensed into the diluted arrays at 20 μL/well. Following brief mixing, Viafect transfection reagent (Promega) diluted 16-fold into Opti-MEM was dispensed into the plates at 40 μL/well. After mixing by pipetting, plates were incubated for 10 min on the pipetting station deck. The DNA-transfection reagent complexes were then added to plates containing cells. To facilitate the screen, 10 μL of DNA-transfection reagent complexes were added in duplicates to the top 4 and bottom 4 rows, resulting in two identical 48-well arrays per plate. Plates with transfected cells were incubated for 18–20 h at 37 °C/5% CO2. A screen of each tracer across the entire library using two different concentrations requires duplicate plates of transfected cells. Depending on the number of tracers being screened, transfections can be scaled up using the same ratios. The next day, for each tracer, four 20× screening solutions in tracer dilution buffer (Promega) were prepared: two duplicates at final concentration of 20 μM and two duplicates at a final concentration of 2 μM. A competing unmodified compound was added to one of each duplicate at a final concentration of 400 μM. The four resulting solutions were diluted 4-fold in Opti-MEM without serum or phenol red to generate 5× solutions (5 µM and 0.5 µM tracer +/− 100 μM competing compound). To screen the library, a BioTek MultiFlo FX liquid dispenser was used to dispense 22.5 µL of tracer solution to the top 4 rows and 22.5 µL tracer + competing compound solution to the 4 bottom rows. Plates were briefly mixed on an orbital shaker and incubated for 1.5 h at room temperature. […]

Structure (SMILES)	NanoBRET Fold Response (RXFP3, tracer 0.1μM)	NanoBRET Fold Response (RXFP3, tracer 1μM)	further results
CCOC(=O)c1cc(C#N)c(N2CCC(C(=O)NS(=O)(=O)Cc3ccccc3/C=C/C(=O)NCCNC(=O)CCc3ccc4n3[B-](F)(F)[N+]3=C(c5ccc[nH]5)C=CC3=C4)CC2)nc1C [AZD1283-1-NB590]			NanoBRET Fold Response (RXFP3, 0.1μM): 0.94; NanoBRET Fold Response (RXFP3, 1μM): 1.12
N#CN=C(NCCCOc1cccc(CN2CCCCC2)c1)NCCNC(=O)CCOCCOCCOCCOCCNC(=O)CCc1ccc2n1[B-](F)(F)[N+]1=C(c3ccc[nH]3)C=CC1=C2 [Aminopotentidine-2-NB590]	1.04	0.97	
CN(C)CCC=C1c2ccccc2CCc2ccc(C(=O)NCCNC(=O)CCOCCOCCOCCOCCNC(=O)CCc3ccc4n3[B-](F)(F)[N+]3=C(c5ccc[nH]5)C=CC3=C4)cc21 [Amitriptyline-a-2-NB590]			NanoBRET Fold Response (tracer at 0.1μM): 0.97; NanoBRET Fold Response (tracer at 1μM): 0.99
CN(C)CCC=C1c2ccccc2CCc2ccc(C(=O)NCCNC(=O)CCOCCOCCOCCOCCNC(=O)CCc3ccc4n3[B-](F)(F)[N+]3=C(c5ccc[nH]5)C=CC3=C4)cc21 [Amitriptyline-b-2-NB590]			NanoBRET Fold Response (tracer at 0.1μM, listed as amitriptyline-b-2-NB590): 0.98; NanoBRET Fold Response (tracer at 1μM, listed as amitriptyline-b-2-NB590): 1.03
COc1ccc2c(n1)c(CCNC(C)=O)cn2CCNC(=O)CCc1ccc2n1[B-](F)(F)[N+]1=C(c3ccc[nH]3)C=CC1=C2 [Azamelatonin-1-NB590]			NanoBRET Fold Response (0.1μM tracer): 1.07; NanoBRET Fold Response (1μM tracer): 1.11
COc1ccc2[nH]c(-c3ccc(CNC(=O)CCOCCOCCOCCOCCNC(=O)CCc4ccc5n4[B-](F)(F)[N+]4=C(c6ccc[nH]6)C=CC4=C5)cc3)c(CCNC(C)=O)c2n1 [AzomelatoninICO9-2-NB590]			NanoBRET Fold Response (0.1μM tracer): 0.89; NanoBRET Fold Response (1μM tracer): 1.22
O=C(CCOCCOCCOCCOCCNC(=O)CCc1ccc2n1[B-](F)(F)[N+]1=C(c3ccc[nH]3)C=CC1=C2)NCCCN1CCN(C2=Nc3cc(Cl)ccc3Nc3ccccc32)CC1 [Clozapine-a-2-NB590]			NanoBRET Fold Response (RXFP3, 0.1μM tracer): 1.04; NanoBRET Fold Response (RXFP3, 1μM tracer): 0.96
CN1CCN(C2=Nc3cc(Cl)ccc3Nc3ccc(CNC(=O)CCOCCOCCOCCOCCNC(=O)CCc4ccc5n4[B-](F)(F)[N+]4=C(c6ccc[nH]6)C=CC4=C5)cc32)CC1 [Clozapine-b-2-NB590]			NanoBRET Fold Response (RXFP3, 0.1μM tracer): 0.99; NanoBRET Fold Response (RXFP3, 1μM tracer): 1.04
CN1CCN(C2=Nc3cc(Cl)ccc3N(CC(=O)NCCOCCOCCOCCOCCNC(=O)CCc3ccc4n3[B-](F)(F)[N+]3=C(c5ccc[nH]5)C=CC3=C4)c3ccccc32)CC1 [Clozapine-c-2-NB590]			NanoBRET Fold Response (RXFP3, 0.1μM tracer): 0.99; NanoBRET Fold Response (RXFP3, 1μM tracer): 1.05
O=C(CCOCCOCCOCCOCCNC(=O)CCc1ccc2n1[B-](F)(F)[N+]1=C(c3ccc[nH]3)C=CC1=C2)NCCCN1CCN(C2=Nc3ccccc3Oc3ccc(Cl)cc32)CC1 [Loxapine-a-2-NB590]	1.11	1.22	
COc1ccccc1N1CCN(CCCCN2C(=O)c3ccc(CNC(=O)CCOCCOCCOCCOCCNC(=O)CCc4ccc5n4[B-](F)(F)[N+]4=C(c6ccc[nH]6)C=CC4=C5)cc3C2=O)CC1 [NAN-190-2-NB590]	1.02		
COc1ccccc1N1CCN(CCCCN2C(=O)c3ccc(CNC(=O)CCOCCNC(=O)c4ccc(CNC(=O)CCc5ccc6n5[B-](F)(F)[N+]5=C(c7ccc[nH]7)C=CC5=C6)cc4)cc3C2=O)CC1 [NAN-190-3-NB590]	1.08	0.95	
O=C(CCc1ccc2n1[B-](F)(F)[N+]1=C(c3ccc[nH]3)C=CC1=C2)NCc1ccc(C(=O)NCCOCCC(=O)N[C@@H]2CC[C@@]3(O)[C@H]4Cc5ccc(O)c6c5[C@@]3(CCN4CC3CC3)[C@H]2O6)cc1 [Naltrexone-3-NB590]	0.98	1.05	
Cc1cc2c(s1)Nc1ccccc1N=C2N1CCN(CCCNC(=O)CCOCCOCCOCCOCCNC(=O)CCc2ccc3n2[B-](F)(F)[N+]2=C(c4ccc[nH]4)C=CC2=C3)CC1 [Olanzapine-a-2-NB590]	0.97	1.11	
O=C(CCc1ccc2n1[B-](F)(F)[N+]1=C(c3ccc[nH]3)C=CC1=C2)NCc1ccc(C(=O)NCCOCCOCCNCC(O)COc2cccc3ccccc23)cc1 (stereo not drawn) [Propranolol-3-NB590]			NanoBRET Fold Response (RXFP3, 0.1μM): 1.14; NanoBRET Fold Response (RXFP3, 1μM): 1.08
O=C(CCc1ccc2n1[B-](F)(F)[N+]1=C(c3ccc[nH]3)C=CC1=C2)NCCOCCOCCNC(=O)OCCOCCN1CCN(C2=Nc3ccccc3Sc3ccccc32)CC1 [Quetiapine-a-2-NB590]	0.88	0.92	
Cc1nc2n(c(=O)c1CCN1CCC(c3noc4cc(F)ccc34)CC1)CCCC2OC(=O)NCCOCCOCCOCCOCCNC(=O)CCc1ccc2n1[B-](F)(F)[N+]1=C(c3ccc[nH]3)C=CC1=C2 (stereo not drawn) [Risperidone-2-NB590]	1.00	1.00	
CC(C)N(CC[C@H](c1ccccc1)c1cc(CCNC(=O)CCOCCOCCOCCOCCNC(=O)CCc2ccc3n2[B-](F)(F)[N+]2=C(c4ccc[nH]4)C=CC2=C3)ccc1O)C(C)C [Tolterodine-2-NB590]	1.18	1.10	
CC(C)N(CC[C@H](c1ccccc1)c1cc(CCNC(=O)c2ccc(CNC(=O)CCc3ccc4n3[B-](F)(F)[N+]3=C(c5ccc[nH]5)C=CC3=C4)cc2)ccc1O)C(C)C [Tolterodine-BZ-NB590]	1.01	1.19	
CCCn1c(=O)c2[nH]c(-c3ccc(OCC(=O)NCCNC(=O)CCOCCNC(=O)c4ccc(CNC(=O)CCc5ccc6n5[B-](F)(F)[N+]5=C(c7ccc[nH]7)C=CC5=C6)cc4)cc3)nc2n(CCC)c1=O [XAC-3-NB590]	0.95	0.92	
